From patent publication US6403606B1, “Thienopyridine derivatives and their use” (Takeda Chemical Industries Ltd., priority 1996, dated 2002) come the findings set out here.

Broadly, the melting point is the temperature of the solid-liquid transition. `CCNCc1nc2sc3c(c2c(-c2ccc(OC)c(OC)c2)c1Cl)CCN(Cc1ccccc1)C3` [Example 1B, 7-benzyl-3-chloro-4-(3,4,-dimethoxyphenyl)-2-ethylaminomethyl-5,6,7,8-tetrahydrothieno[2,3-b:5,4-c′]dipyridine] gave a melting point of 135 to 136 °C.
On to `CCN(CC)Cc1nc2sc3c(c2c(-c2ccc(OC)c(OC)c2)c1Cl)CCN(Cc1ccccc1)C3` [Example 2B, 7-benzyl-3-chloro-2-(N,N-diethylaminomethyl)-4-(3,4-dimethoxyphenyl)-5,6,7,8-tetrahydrothieno[2,3-b:5,4-c′]dipyridine], for which the melting point was in the range of 150 to 151 °C.
In the case of `CCOC(=O)c1c(CN2CCC(C(=O)OCC)CC2)nc2sc3c(c2c1-c1ccc(OC)c(OC)c1)CCN(C(=O)c1ccc(Cl)cc1)C3` [Example 3A, ethyl 7-(4-chlorobenzoyl)-4-(3,4-dimethoxyphenyl)-2-(4-ethoxycarbonylpiperidinomethyl)-5,6,7,8-tetrahydrothieno-[2,3-b:5,4-c′]dipyridine-3-carboxylate], the melting point lay in the range of 99 to 101 °C.
As for `COc1ccc(-c2c(Cl)c(CNC(C)(C)C)nc3sc4c(c23)CCN(Cc2ccccc2)C4)cc1OC` [Example 3B, 7-benzyl-2-(tert-butylaminomethyl)-3-chloro-4-(3,4-dimethoxyphenyl)-5,6,7,8-tetrahydrothieno[2,3-b:5,4-c′]dipyridine], the melting point was 134 to 135 °C.
`CCOC(=O)c1c(CN(CC)CC)nc2sc3c(c2c1-c1ccc(Cl)cc1)CCN(C(=O)c1ccccc1)C3` [Example 4A, ethyl 7-benzoyl-4-(4-chlorophenyl)-2-(N,N-diethylaminomethyl)-5,6,7,8-tetrahydrothieno[2,3-b:5,4-c′]dipyridine-3-carboxylate] had a melting point of 177 to 178 °C.
As for `CCC(C)(C)NCc1nc2sc3c(c2c(-c2ccc(OC)c(OC)c2)c1Cl)CCN(Cc1ccccc1)C3` [Example 4B, 2-(tert-amylaminomethyl)-7-benzyl-3-chloro-4-(3,4-dimethoxyphenyl)-5,6,7,8-tetrahydrothieno[2,3-b:5,4-c′]dipyridine], the melting point fell in the range of 128 to 129 °C.
Take `COc1ccc(-c2c(Cl)c(CNC3CC3)nc3sc4c(c23)CCN(Cc2ccccc2)C4)cc1OC` [Example 5B, 7-benzyl-3-chloro-2-(cyclopropylaminomethyl)-4-(3,4-dimethoxyphenyl)-5,6,7,8-tetrahydrothieno[2,3-b:5,4-c′]dipyridine]: the melting point was in the range of 131 to 132 °C.
Consider `CCOC(=O)c1c(CN(CC)CC)nc2sc3c(c2c1-c1ccc(Cl)cc1)CCNC3` [Example 6A, ethyl 4-(4-chlorophenyl)-2-(N,N-diethylaminomethyl)-5,6,7,8-tetrahydrothieno[2,3-b:5,4-c′]dipyridine-3-carboxylate], for which the melting point lay within 104 to 106 °C.
For the compound `COc1ccc(-c2c(Cl)c(COc3ccccn3)nc3sc4c(c23)CCN(Cc2ccccc2)C4)cc1OC` [Example 6B, 7-benzyl-3-chloro-4-(3,4-dimethoxyphenyl)-2-(2-pyridyloxymethyl)-5,6,7,8-tetrahydrothieno[2,3-b:5,4-c′]dipyridine], the melting point lay within 165 to 167 °C.
The compound `COc1ccc(-c2c(Cl)c(CNC(C)(C)C)nc3sc4c(c23)CCN(C(=O)c2ccccc2)C4)cc1OC` [Example 8B, 7-benzoyl-2-(tert-butylaminomethyl)-3-chloro-4-(3,4-dimethoxyphenyl)-5,6,7,8-tetrahydrothieno[2,3-b:5,4-c′]dipyridine] registered a melting point of 204 to 205 °C.
`CCOC(=O)c1c(CN(CC)CC)nc2sc3c(c2c1-c1ccc(OC)c(OC)c1)CCN(S(=O)(=O)c1ccccc1)C3` [Example 9A, ethyl 7-benzenesulfonyl-2-(N,N-diethylaminomethyl)-4-(3,4-dimethoxyphenyl)-5,6,7,8-tetrahydrothieno[2,3-b:5,4-c′]dipyridine-3-carboxylate] yielded a melting point of 161 to 162 °C.
In turn, `COc1cc(-c2c(Cl)c(CNC(C)(C)C)nc3sc4c(c23)CCN(C(=O)c2ccccc2)C4)ccc1OC(C)C` [Example 9B, 7-benzoyl-2-(tert-butylaminomethyl)-3-chloro-4-(4-isopropoxy-3-methoxyphenyl)-5,6,7,8-tetrahydrothieno[2,3-b:5,4-c′]dipyridine] gave a melting point of 165 to 166 °C.
As to `COc1ccc(C2(Cl)CC(CNC(C)(C)C)=Nc3sc4c(c32)CCNC4)cc1OC` (stereo not shown) [Example 10B, 2-(tert-butylaminomethyl)-4-chloro-4-(3,4-dimethoxyphenyl)-5,6,7,8-tetrahydrothieno(2,3-b:5,4-c′]dipyridine], the melting point lay within 162 to 163 °C.
The compound `COc1cc(-c2c(Cl)c(CNC(C)(C)C)nc3sc4c(c23)CCNC4)ccc1OC(C)C` [Example 11B, 2-(tert-butylaminomethyl)-3-chloro-4-(4-isopropoxy-3-methoxyphenyl)-5,6,7,8-tetrahydrothieno[2,3-b:5,4-c′]dipyridine] displayed a melting point of 157 to 158 °C.
`COc1ccc(-c2c(Cl)c(CN3CCN(C(C)=O)CC3)nc3sc4c(c23)CCN(Cc2ccccc2)C4)cc1OC` [Example 14B, 2-(4-acetylpiperazin-1-ylmethyl)-7-benzyl-3-chloro-4-(3,4-dimethoxyphenyl)-5,6,7,8-tetrahydrothieno[2,3-b:5,4-c′]dipyridine] gave a melting point of 183 to 184 °C.
As to `CCOC(=O)c1c2c(cn1CN(CC)CC)C1=C(NC(C(=O)OCc3ccccc3)CC1)[SH]2c1ccc(OC)c(OC)c1` (stereo not shown) [Example 16A, ethyl 2-benzyloxycarbonyl-8-(3,4-dimethoxyphenyl)-6-diethylaminomethyl-2,3-dihydro-1H-pyrrolo[3′,4′:4,5]-thieno[2,3-b]pyridine-7-carboxylate], the melting point is 142 to 143 °C.
As for `CCOC(=O)c1c2c(cn1Cn1cncn1)C1=C(NC(C(=O)OCc3ccccc3)CC1)[SH]2c1ccc(OC)c(OC)c1` (stereo not shown) [Example 17A, ethyl 2-benzyloxycarbonyl-8-(3,4-dimethoxyphenyl)-2,3-dihydro-6-(1,2,4-triazol-1-ylmethyl)-1H-pyrrolo[3′,4′:4,5]thieno[2,3-b]pyridine-7-carboxylate], the melting point lay in the range of 166 to 167 °C.
`COc1ccc(-c2c(Cl)c(CNS(=O)(=O)c3ccccc3)nc3sc4c(c23)CCN(Cc2ccccc2)C4)cc1OC` [Example 19B, 7-benzyl-3-chloro-4-(3,4-dimethoxyphenyl)-2-phenylsulfonylaminomethyl-5,6,7,8-tetrahydrothieno[2,3-b:5,4-c′]dipyridine] showed a melting point of 153 to 154 °C.
Consider `CCOC(=O)c1c(Cn2cncn2)nc2sc3c(c2c1-c1ccc(OC)c(OC)c1)CCN(C(=O)c1ccccc1)C3` [Example 20A, ethyl 7-benzoyl-4-(3,4-dimethoxyphenyl)-5,6,7,8-tetrahydro-2-(1,2,4-triazol-1-ylmethyl)thieno[2,3-b:5,4-c′]dipyridine-3-carboxylate], for which the melting point lay in the range of 193 to 194 °C.
The compound `COc1ccc(-c2c(Cl)c(CNC(=O)Cn3cncn3)nc3sc4c(c23)CCN(Cc2ccccc2)C4)cc1OC` [Example 20B, 7-benzyl-3-chloro-4-(3,4-dimethoxyphenyl)-5,6,7,8-tetrahydro-2-(1,2,4-triazol-1-ylacetylaminomethyl)thieno[2,3-b:5,4-c′]dipyridine] showed a melting point of 101 to 102 °C.
In turn, `CCOC(=O)c1c(Cn2cncn2)nc2sc3c(c2c1-c1ccc(OC)c(OC)c1)CCNC3` [Example 21A, ethyl 4-(3,4-dimethoxyphenyl)-5,6,7,8-tetrahydro-2-(1,2,4-triazol-1-ylmethyl)thieno[2,3-b:5,4-c′]dipyridine-3-carboxylate] had a melting point of 164 to 165 °C.
In the case of `CCOC(=O)c1c(Cc2nc[nH]n2)nc2sc3cnccc3c2c1-c1ccc(OC)c(OC)c1` [Example 22A, ethyl 4-(3,4-dimethoxyphenyl)-2-(1,2,4-triazol-ylmethyl)thieno[2,3-b:5,4-c′]dipyridine-3-carboxylate], the melting point fell in the range of 172 to 174 °C.
Take `COc1ccc(-c2c(Cl)c(CNC(=O)c3cccnc3)nc3sc4c(c23)CCN(Cc2ccccc2)C4)cc1OC` [Example 22B, 7-benzyl-3-chloro-4-(3,4-dimethoxyphenyl)-2-(nicotinoylaminomethyl)-5,6,7,8-tetrahydrothieno[2,3-b:5,4-c′]dipyridine]: the melting point fell in the range of 124 to 125 °C.
In turn, `CCOC(=O)c1c(CCc2nccn2C)nc2sc3c(c2c1-c1ccc(OC)c(OC)c1)CCN(C(=O)c1ccccc1)C3` [Example 23A, ethyl 7-benzoyl-4-(3,4-dimethoxyphenyl)-5,6,7,8-tetrahydro-2-[2-(1-methylimidazol-2-yl)ethyl]thieno[2,3-b:5,4-c′]dipyridine-3-carboxylate] came in with a melting point of 170 to 217 °C.
`CCOC(=O)c1c(CCc2c[nH]nn2)nc2sc3c(c2c1-c1ccc(OC)c(OC)c1)CCN(C(=O)c1ccccc1)C3` [Example 24A, ethyl 7-benzoyl-4-(3,4-dimethoxyphenyl)-5,6,7,8-tetrahydro-2-[2-(1,2,3-triazol-4-yl)ethyl]thieno[2,3-b:5,4-c′]dipyridine-3-carboxylate] gave a melting point of 184 to 185 °C.
Next, `CCOC(=O)c1c(CN(C)O)nc2sc3c(c2c1-c1ccc(OC)c(OC)c1)CCN(C(=O)c1ccccc1)C3` [Example 25A, ethyl 7-benzoyl-4-(3,4-dimethoxyphenyl)-2-(N-hydroxy-N-methylaminomethyl)-5,6,7,8-tetrahydrothieno[2,3-b:5,4-c′]dipyridine-3-carboxylate]: 129 to 130 °C.
As to `CCOC(=O)c1c(CCn2cncn2)nc2sc3c(c2c1-c1ccc(OC)c(OC)c1)CCN(C(=O)c1ccc(Cl)cc1)C3` [Example 26A, ethyl 7-(4-chlorobenzoyl)-4-(3,4-dimethoxyphenyl)-5,6,7,8-tetrahydro-2-[2-(1,2,4-triazol-1-yl)ethyl]thieno[2,3-b:5,4-c′]dipyridine-3-carboxylate], the melting point lay within 195 to 197 °C.
As for `COc1ccc(-c2c(Cl)c(Cn3cncn3)nc3sc4c(c23)CCN(Cc2ccccc2)C4)cc1OC` [Example 26B, 7-benzyl-3-chloro-4-(3,4-dimethoxyphenyl)-5,6,7,8-tetrahydro-2-(1,2,4-triazol-1-ylmethyl)thieno[2,3-b:5,4-c′]dipyridine], the figure is 165 to 166 °C.
